Reference: US8835467B2, “SIR2 regulation” (Albert Einstein College of Medicine of Yeshiva University, priority 2003, dated 2014)
Several values for one entry are separate records, joined by “and”; a condition that tells them apart may be missing. Equal values may be shown once.

Experiments:
[1] = molecular target: T1, Bacterial SIR2Af2 (Archaeoglobus fulgidus, UniProt O30124); assay: SIR2 deacetylation assay (p53 peptide, HPLC of ADPR and 3′-O-acetyl-ADPR); assay type: biochemical, Archeaglobus fulgidus
T1 construct: made in house
T1 sequence (O30124 1-253): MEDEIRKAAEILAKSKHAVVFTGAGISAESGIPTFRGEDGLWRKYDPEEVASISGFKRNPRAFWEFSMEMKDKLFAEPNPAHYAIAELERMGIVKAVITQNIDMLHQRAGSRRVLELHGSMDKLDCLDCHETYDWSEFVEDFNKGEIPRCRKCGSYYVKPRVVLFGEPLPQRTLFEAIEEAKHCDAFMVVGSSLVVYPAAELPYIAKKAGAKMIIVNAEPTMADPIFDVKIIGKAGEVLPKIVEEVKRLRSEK
Method: (§1) After 2 hours, aliquots of 10 μL removed at 0, 30, 60, 90 and 120 min. Each aliquot was combined with 50 μL 50 mM ammonium acetate pH 5.0 to quench and assayed by HPLC for deacetylation products and NAD^+. The chromatograms (260 nm) were obtained using 50 mM ammonium acetate pH 5.0 as eluant on a semi-preparative Waters C-18 column (2.0 mL/min flow rate). Peaks for ADPR and 3′-O-Acetyl-ADPR were quantified by integration. The peak for NAD^+ was collected and radiation counted. […] Plots of deacetylation rate versus nicotinamide were fit to the equations described in the text.
(§2) Reactions were as above but base reactions contained 5 mM of pyrazinamide, isonicotinamide, thionicotinamide, or benzamide. Reactions were carried out (2 hours for AF2 and yeast enzymes and 3 hours for mouse enzyme) at 37° C. and quenched by addition of 80 μL 50 mM ammonium acetate pH 5.0. Product formation was quantified by HPLC. Thionicotinamide-NAD^+ was synthesized by CD38. Rates were compared with controls lacking added base.

[2] = molecular target: T2, Yeast SIR2p (Saccharomyces cerevisiae, UniProt P06700); assay: as above; assay type: biochemical
T2 construct: made in house
T2 sequence (P06700 whole entry): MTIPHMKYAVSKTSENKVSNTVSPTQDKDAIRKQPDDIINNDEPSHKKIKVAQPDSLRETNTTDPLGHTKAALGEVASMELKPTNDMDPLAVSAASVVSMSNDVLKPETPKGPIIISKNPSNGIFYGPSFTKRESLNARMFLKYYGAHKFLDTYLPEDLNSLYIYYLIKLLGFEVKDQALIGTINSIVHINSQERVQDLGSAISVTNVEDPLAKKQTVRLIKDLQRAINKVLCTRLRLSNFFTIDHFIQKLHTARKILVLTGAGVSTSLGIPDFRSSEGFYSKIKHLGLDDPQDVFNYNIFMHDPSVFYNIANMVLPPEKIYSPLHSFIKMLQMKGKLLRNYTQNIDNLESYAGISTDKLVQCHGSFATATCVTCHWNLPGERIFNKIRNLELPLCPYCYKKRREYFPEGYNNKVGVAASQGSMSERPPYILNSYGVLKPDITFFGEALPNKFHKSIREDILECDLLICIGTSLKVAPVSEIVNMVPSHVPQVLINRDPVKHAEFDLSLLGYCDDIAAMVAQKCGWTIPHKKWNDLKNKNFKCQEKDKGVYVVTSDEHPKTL
Method: (§3) After 2 hours, aliquots of 10 μL removed at 0, 30, 60, 90 and 120 min. Each aliquot was combined with 50 μL 50 mM ammonium acetate pH 5.0 to quench and assayed by HPLC for deacetylation products and NAD^+. The chromatograms (260 nm) were obtained using 50 mM ammonium acetate pH 5.0 as eluant on a semi-preparative Waters C-18 column (2.0 mL/min flow rate). Peaks for ADPR and 3′-O-Acetyl-ADPR were quantified by integration. The peak for NAD^+ was collected and radiation counted.
as §2, with “Thionicotinamide-NAD^+ was synthesized by CD38.” left out

[3] = molecular target: T3, Mouse SIR2 enzyme (SIR2α) (Mus musculus, UniProt Q923E4); assay: as above; assay type: biochemical
T3 construct: purchased Upstate Group
T3 sequence (Q923E4 1-737): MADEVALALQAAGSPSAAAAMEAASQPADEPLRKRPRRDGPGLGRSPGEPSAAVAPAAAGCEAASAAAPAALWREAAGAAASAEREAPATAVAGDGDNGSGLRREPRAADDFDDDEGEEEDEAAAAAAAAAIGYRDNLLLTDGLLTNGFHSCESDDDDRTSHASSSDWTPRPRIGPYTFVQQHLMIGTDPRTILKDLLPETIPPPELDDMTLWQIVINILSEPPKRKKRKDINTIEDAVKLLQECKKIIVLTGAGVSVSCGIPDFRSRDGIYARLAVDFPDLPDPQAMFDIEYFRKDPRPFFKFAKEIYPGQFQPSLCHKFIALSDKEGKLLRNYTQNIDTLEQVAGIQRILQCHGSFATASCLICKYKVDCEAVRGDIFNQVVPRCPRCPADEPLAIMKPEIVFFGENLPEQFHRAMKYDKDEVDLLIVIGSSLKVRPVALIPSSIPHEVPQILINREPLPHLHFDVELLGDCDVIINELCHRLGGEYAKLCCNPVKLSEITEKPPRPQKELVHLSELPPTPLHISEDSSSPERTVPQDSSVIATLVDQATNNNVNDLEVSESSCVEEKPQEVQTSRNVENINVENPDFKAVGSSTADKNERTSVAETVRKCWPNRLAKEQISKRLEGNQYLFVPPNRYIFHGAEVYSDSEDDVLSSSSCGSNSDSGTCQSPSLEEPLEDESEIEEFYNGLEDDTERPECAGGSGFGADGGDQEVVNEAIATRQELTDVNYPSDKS
Method: as §3
as §2, with “Thionicotinamide-NAD^+ was synthesized by CD38.” left out

[4] = molecular target: T4, Af2Sir2 (archaean) (Archaeoglobus fulgidus, UniProt O30124); assay: HPLC assay of deacetylation, histone H4 substrate (Example 3); assay type: biochemical; settings: Archaea enzyme
T4 sequence (O30124 1-253): T1 sequence (O30124 1-253)
Method: (§4) NAD^+ in 50 μL 50 mM potassium phosphate pH 7.0. Each solution also contained a variable amount of 2-Fluoronicotinamide with concentrations of 0, 5, 10, 20, 40 and 80 mM of the compound. […] Deacetylation was assayed by integration of the peaks for AADPR and ADPR in reaction mixtures.

[5] = molecular target: T4, Af2Sir2 (archaean); assay: HPLC assay of base exchange, histone H4 substrate (Example 3); settings: Archaea enzyme
Method: as §4

[6] = molecular target: T4, Af2Sir2 (archaean); assay: biochemical
Method: as §4

[7] = molecular target: T5, Sir2p (yeast) (Saccharomyces cerevisiae, UniProt P06700); assay: HPLC assay of deacetylation, histone H4 substrate (Example 3); assay type: biochemical; settings: Yeast enzyme
T5 sequence (P06700 whole entry): as the sequence (P06700 whole entry) above

[8] = molecular target: T5, Sir2p (yeast); assay: HPLC assay of base exchange, histone H4 substrate (Example 3); assay type: biochemical; settings: for % rate (base exchange) / Cpm/sample (radioactivity in NAD peak): Yeast enzyme
[9] = molecular target: T2, Yeast SIR2p; assay: SIR2 nicotinamide base-exchange assay (p53 peptide, HPLC/14C); assay type: biochemical; parameters: kcat (exchange): dose or concentration left out as unconfirmed
Method: as §3

[10] = molecular target: T3, Mouse SIR2 enzyme (SIR2α); assay: as above; assay type: biochemical; parameters: kcat (exchange): dose or concentration left out as unconfirmed
Method: as §3

[11] = molecular target: Yeast Sir2 (Saccharomyces cerevisiae, UniProt P06700); assay: Sir2 catalyzed deacetylation of H4 N-terminal peptide; assay type: biochemical; settings: Ki, apparent nicotinamide inhibition constant (deacetylation)
Yeast Sir2, sequence (P06700 whole entry): as the sequence (P06700 whole entry) above
Method: Measurements were performed by methods described in Sauve and Schramm (2003) with the H4N-terminal peptide (AGG(AcK)GG(AcK)GMG(AcK)VGA(AcK)RHSC) (Imai et al., 2000) as substrate.

[12] = tested on: Sir2-dependent transcriptional silencing at the silent mating-type loci (HMR, HML); assay: Silent mating-type locus reporter silencing, spot assay; assay type: cell-based, yeast
Method: The photographs were taken after 2 to 3 days incubation. […] Isogenic strains UCC4562 (DOT1) and UCC4554 (dot1Δ) (Singer et al., 1998) are shown in each panel (top and bottom rows, respectively). […] The phenotype of strain CCFY10028 (top row) is compared to an isogenic sir2 derivative (bottom row). The sir2 deletion strain was generated by PCR-mediated gene disruption using a Nat-MX selectable marker (Tong et al., 2004).
The deletion strains were generated by PCR-mediated gene disruption using a Nat-MX selectable marker (Tong et al., 2004). Silencing at TEL-VR::URA3 is reported by survival on FOA-containing media and at HMR::TRP1 is detected by reduced growth on media lacking tryptophan.
The effect of isonicotinamide on Sir2 activity at the silent mating-type loci was measured in an HMR: TRP1 strain by growth on medium lacking tryptophan (FIG. 8b). Silencing of TRP1 decreases growth on Trp^− media.

[13] = molecular target: T1, Bacterial SIR2Af2; assay: SIR2 nicotinamide base-exchange assay (p53 peptide, HPLC/14C); assay type: biochemical, Archeaglobus fulgidus; parameters: kcat (exchange): dose or concentration left out as unconfirmed
Method: as §1

## NC(=S)c1cccnc1 [Thionicotinamide]
[1]
  inhibition at 5000 µM: 4%
[2]
  inhibition at 5000 µM: 15%
[3]
  inhibition at 5000 µM: 16%

## NC(=O)c1cccnc1F
[4]; 5 mM
  % rate (deacetylation): 100%
[4]; 10 mM
  % rate (deacetylation): 100%
[4]; 20 mM
  % rate (deacetylation): 100%
[4]; 40 mM
  % rate (deacetylation): 100%
[4]; 80 mM
  % rate (deacetylation): 100%
[5]; 5 mM
  % rate (base exchange): 91%
  Cpm/sample (radioactivity in NAD peak): 18,200 Cpm/sample
[5]; 10 mM
  % rate (base exchange): 80%
  Cpm/sample (radioactivity in NAD peak): 16,100 Cpm/sample
[5]; 20 mM
  % rate (base exchange): 73%
  Cpm/sample (radioactivity in NAD peak): 14,600 Cpm/sample
[5]; 40 mM
  % rate (base exchange): 50%
  Cpm/sample (radioactivity in NAD peak): 10,300 Cpm/sample
[5]; 80 mM
  % rate (base exchange): 35%
  Cpm/sample (radioactivity in NAD peak): 7,000 Cpm/sample
[6]
  Ki: 43000 µM
[7]; 5 mM
  % rate (deacetylation): 100%
[7]; 10 mM
  % rate (deacetylation): 97%
[7]; 20 mM
  % rate (deacetylation): 100%
[7]; 40 mM
  % rate (deacetylation): 95%
[7]; 80 mM
  % rate (deacetylation): 95%
[8]
  Ki: 20000 µM
[8]; 5 mM
  % rate (base exchange): 76%
  Cpm/sample (radioactivity in NAD peak): 24,500 Cpm/sample
[8]; 10 mM
  % rate (base exchange): 58%
  Cpm/sample (radioactivity in NAD peak): 18,800 Cpm/sample
[8]; 20 mM
  % rate (base exchange): 47%
  Cpm/sample (radioactivity in NAD peak): 15,200 Cpm/sample
[8]; 40 mM
  % rate (base exchange): 36%
  Cpm/sample (radioactivity in NAD peak): 11,600 Cpm/sample
[8]; 80 mM
  % rate (base exchange): 28%
  Cpm/sample (radioactivity in NAD peak): 9,000 Cpm/sample

## NC(=O)c1ccccc1 [Benzamide]
[1]
  inhibition at 5000 µM: 5%
[2]
  inhibition at 5000 µM: 0%
[3]
  inhibition at 5000 µM: 44%

## NC(=O)c1cnccn1 [Pyrazinamide]
[1]
  inhibition at 5000 µM: 4%
[2]
  inhibition at 5000 µM: 1%
[3]
  inhibition at 5000 µM: 1%

## NC(=O)c1cccnc1 [nicotinamide]
[9]
  Ki: > 8000 µM
[9]; yeast enzyme, from nicotinamide saturation curves, pH 7.8
  kcat (exchange): 0.0967 ± 0.0067 s⁻¹
[10]
  Ki: > 8000 µM
[10]; mouse enzyme, from nicotinamide saturation curves, pH 7.8
  kcat (exchange): 0.05 ± 0.0033 s⁻¹
[11]; 0 mM isonicotinamide
  Ki: 100 µM
[11]; 60 mM isonicotinamide
  Ki: 180 µM
[11]; 100 mM isonicotinamide
  Ki: 330 µM
[12]; HMR::TRP1, Trp− medium
  growth phenotype of isogenic sir2Δ strain: Neither compound altered the growth phenotype
[12]; HMR::TRP1 strain, 5 mM nicotinamide
  growth on Trp− medium: increased growth
[1]
  Ki: 26 ± 4 µM
[1]; bacterial SIR2, saturation of the nicotinamide site
  intermediate returned to acetylated protein: 21%
[1]; bacterial enzyme, high (>10 Ki) nicotinamide
  reduction of deacetylation rate by nicotinamide: 21%
[1]; bacterial enzyme, in the presence of 2 mM nicotinamide
  kinh (deacetylation), residual deacetylation rate: 1.4 ± 0.2 min⁻¹
[13]
  Ki: > 8000 µM
[13]; bacterial enzyme, from nicotinamide saturation curves, pH 7.8
  kcat (exchange): 0.00583 ± 0.00067 s⁻¹
[2]
  Ki: 120 ± 25 µM
[2]; yeast SIR2, saturation of the nicotinamide site
  intermediate returned to acetylated protein: 65%
[2]; yeast enzyme, high (millimolar) nicotinamide
  reduction of deacetylation rate by nicotinamide: 65%
[2]; yeast enzyme, in the presence of 2 mM nicotinamide
  kinh (deacetylation), residual deacetylation rate: 0.60 ± 0.08 min⁻¹
[3]
  Ki: 160 µM
[3]; mouse SIR2, saturation of the nicotinamide site
  intermediate returned to acetylated protein: 95%
[3]; mouse enzyme, high nicotinamide concentrations
  inhibition of deacetylation by nicotinamide: > 95% and 95%
[3]; mouse enzyme, in the presence of 2 mM nicotinamide
  kinh (deacetylation), residual deacetylation rate: 0.014 ± 0.002 min⁻¹
